Reference: US11498899B2, “Nitrone herbicides” (FMC Corporation, priority 2016, dated 2022)

Key:
[1] = test system: barnyardgrass (Echinochloa crus-galli); assay: Test A preemergence, visual injury rating 0-100 (0 no effect, 100 complete control); format: in vivo
[2] = test system: ducksalad (Heteranthera limosa); assay: Test B flooded paddy test, visual rating 0-100; details: Flood, 250 g ai/ha, applied to paddy water, rated after 13 to 15 days
[3] = test system: foxtail, giant (giant foxtail, Setaria faberii); assay: Test A postemergence, visual injury rating 0-100; format: in vivo; details: 0 to 100 scale
corn (Zea mays) = assay: Test A postemergence, visual injury rating 0-100; format: in vivo; details: 0 to 100 scale
[4] = test system: blackgrass (Alopecurus myosuroides); assay: Test A postemergence, visual injury rating 0-100; format: in vivo; details: 0 to 100 scale
kochia (Kochia scoparia) [5] = assay: Test A postemergence, visual injury rating 0-100; format: in vivo; details: 0 to 100 scale
[6] = test system: galium (catchweed bedstraw, Galium aparine); assay: Test A postemergence, visual injury rating 0-100; format: in vivo; details: 0 to 100 scale
[7] = test system: ragweed (common ragweed, Ambrosia elatior); assay: Test A postemergence, visual injury rating 0-100; format: in vivo; details: 0 to 100 scale
[8] = test system: barnyardgrass (Echinochloa crus-galli); assay: Test A postemergence, visual injury rating 0-100; format: in vivo; details: 0 to 100 scale
[9] = test system: wheat (Triticum aestivum); assay: Test A postemergence, visual injury rating 0-100; format: in vivo; details: 0 to 100 scale
[10] = test system: pigweed (Amaranthus retroflexus); assay: Test A postemergence, visual injury rating 0-100; format: in vivo; details: 0 to 100 scale
[11] = test system: ryegrass, Italian (Italian ryegrass, Lolium multiflorum); assay: Test A postemergence, visual injury rating 0-100; format: in vivo; details: 0 to 100 scale
[12] = test system: foxtail, giant (giant foxtail, Setaria faberii); assay: Test A preemergence, visual injury rating 0-100; format: in vivo
kochia (Kochia scoparia) [13] = assay: Test A preemergence, visual injury rating 0-100; format: in vivo
[14] = test system: ragweed (common ragweed, Ambrosia elatior); assay: Test A preemergence, visual injury rating 0-100; format: in vivo
[15] = test system: pigweed (Amaranthus retroflexus); assay: Test A preemergence, visual injury rating 0-100; format: in vivo
[16] = test system: ryegrass, Italian (Italian ryegrass, Lolium multiflorum); assay: Test A preemergence, visual injury rating 0-100; format: in vivo
[17] = test system: barnyardgrass (Echinochloa crus-galli); assay: Test B flooded paddy test, visual rating 0-100; details: Flood, 250 g ai/ha, applied to paddy water, rated after 13 to 15 days
rice (Oryza sativa) = assay: Test B flooded paddy test, visual rating 0-100 (0 no effect, 100 complete control); details: Flood, 250 g ai/ha, applied to paddy water, rated after 13 to 15 days
[18] = 31 g ai/ha, 0 to 100 scale (0 no effect, 100 complete control), approx. 10 days

## CC1=[N+]([O-])C(C(=O)Nc2cccc(F)c2F)C(c2ccc(F)c(Oc3ccc(Cl)nc3)c2)C1 (racemic) [Compound 51]
[1]; [18]
  Barnyardgrass plant response rating: 0
[1]; 125 g ai/ha
  Barnyardgrass plant response rating (0 to 100 scale): 40
[2]
  Ducksalad plant response rating (0 to 100 scale): 0
[3]; 31 g ai/ha
  Foxtail, Giant plant response rating: 0
[3]; 125 g ai/ha
  Foxtail, Giant plant response rating: 0
Corn (Zea mays); 31 g ai/ha
  Corn plant response rating: 0
Corn (Zea mays); 125 g ai/ha
  Corn plant response rating: 0
[4]; 31 g ai/ha
  Blackgrass plant response rating: 0
[4]; 125 g ai/ha
  Blackgrass plant response rating: 70
Kochia (Kochia scoparia) [5]; 31 g ai/ha
  Kochia plant response rating: 0
Kochia (Kochia scoparia) [5]; 125 g ai/ha
  Kochia plant response rating: 20
[6]; 31 g ai/ha
  Galium plant response rating: 60
[6]; 125 g ai/ha
  Galium plant response rating: 70
[7]; 31 g ai/ha
  Ragweed plant response rating: 0
[7]; 125 g ai/ha
  Ragweed plant response rating: 60
[8]; 31 g ai/ha
  Barnyardgrass plant response rating: 0
[8]; 125 g ai/ha
  Barnyardgrass plant response rating: 0
[9]; 31 g ai/ha
  Wheat plant response rating: 0
[9]; 125 g ai/ha
  Wheat plant response rating: 10
[10]; 31 g ai/ha
  Pigweed plant response rating: 0
[10]; 125 g ai/ha
  Pigweed plant response rating: 0
[11]; 31 g ai/ha
  Ryegrass, Italian plant response rating: 0
[11]; 125 g ai/ha
  Ryegrass, Italian plant response rating: 0
[12]; [18]
  Foxtail, Giant plant response rating: 0
[12]; 125 g ai/ha
  Foxtail, Giant plant response rating (0 to 100 scale): 30
Kochia (Kochia scoparia) [13]; [18]
  Kochia plant response rating: 0
Kochia (Kochia scoparia) [13]; 125 g ai/ha
  Kochia plant response rating (0 to 100 scale): 0
[14]; [18]
  Ragweed plant response rating: 0
[14]; 125 g ai/ha
  Ragweed plant response rating (0 to 100 scale): 0
[15]; [18]
  Pigweed plant response rating: 0
[15]; 125 g ai/ha
  Pigweed plant response rating (0 to 100 scale): 0
[16]; [18]
  Ryegrass, Italian plant response rating: 0
[16]; 125 g ai/ha
  Ryegrass, Italian plant response rating (0 to 100 scale): 0
[17]
  Barnyardgrass plant response rating (0 to 100 scale): 0
Rice (Oryza sativa)
  Rice plant response rating (0 to 100 scale): 0

## CC1=[N+]([O-])C(C(=O)Nc2cccc(F)c2F)C(c2ccc(F)c(Oc3ncc(F)cn3)c2)C1 (racemic) [Compound 52]
[1]; 125 g ai/ha
  Barnyardgrass plant response rating (0 to 100 scale): 90
[1]; 500 g ai/ha
  Barnyardgrass plant response rating (0 to 100 scale): 100
[2]
  Ducksalad plant response rating (0 to 100 scale): 0
[3]; 125 g ai/ha
  Foxtail, Giant plant response rating: 0
[3]; 500 g ai/ha
  Foxtail, Giant plant response rating: 90
Corn (Zea mays); 125 g ai/ha
  Corn plant response rating: 0
Corn (Zea mays); 500 g ai/ha
  Corn plant response rating: 70
[4]; 125 g ai/ha
  Blackgrass plant response rating: 30
[4]; 500 g ai/ha
  Blackgrass plant response rating: 70
Kochia (Kochia scoparia) [5]; 125 g ai/ha
  Kochia plant response rating: 0
Kochia (Kochia scoparia) [5]; 500 g ai/ha
  Kochia plant response rating: 20
[6]; 125 g ai/ha
  Galium plant response rating: 20
[6]; 500 g ai/ha
  Galium plant response rating: 70
[7]; 125 g ai/ha
  Ragweed plant response rating: 0
[7]; 500 g ai/ha
  Ragweed plant response rating: 30
[8]; 125 g ai/ha
  Barnyardgrass plant response rating: 30
[8]; 500 g ai/ha
  Barnyardgrass plant response rating: 70
[9]; 125 g ai/ha
  Wheat plant response rating: 10
[9]; 500 g ai/ha
  Wheat plant response rating: 70
[10]; 125 g ai/ha
  Pigweed plant response rating: 0
[10]; 500 g ai/ha
  Pigweed plant response rating: 0
[11]; 125 g ai/ha
  Ryegrass, Italian plant response rating: 20
[11]; 500 g ai/ha
  Ryegrass, Italian plant response rating: 60
[12]; 125 g ai/ha
  Foxtail, Giant plant response rating (0 to 100 scale): 80
[12]; 500 g ai/ha
  Foxtail, Giant plant response rating (0 to 100 scale): 100
Kochia (Kochia scoparia) [13]; 125 g ai/ha
  Kochia plant response rating (0 to 100 scale): 0
Kochia (Kochia scoparia) [13]; 500 g ai/ha
  Kochia plant response rating (0 to 100 scale): 20
[14]; 125 g ai/ha
  Ragweed plant response rating (0 to 100 scale): 0
[14]; 500 g ai/ha
  Ragweed plant response rating (0 to 100 scale): 60
[15]; 125 g ai/ha
  Pigweed plant response rating (0 to 100 scale): 0
[15]; 500 g ai/ha
  Pigweed plant response rating (0 to 100 scale): 70
[16]; 125 g ai/ha
  Ryegrass, Italian plant response rating (0 to 100 scale): 80
[16]; 500 g ai/ha
  Ryegrass, Italian plant response rating (0 to 100 scale): 90
[17]
  Barnyardgrass plant response rating (0 to 100 scale): 0
Rice (Oryza sativa)
  Rice plant response rating (0 to 100 scale): 0

## CC1=[N+]([O-])C(C(=O)Nc2cccc(F)c2F)C(c2cccc(Oc3ccc(Cl)cn3)c2)C1 (racemic) [Compound 56]
[1]; 125 g ai/ha
  Barnyardgrass plant response rating (0 to 100 scale): 10
[1]; 500 g ai/ha
  Barnyardgrass plant response rating (0 to 100 scale): 90
[2]
  Ducksalad plant response rating (0 to 100 scale): 40
[3]; 125 g ai/ha
  Foxtail, Giant plant response rating: 40
[3]; 500 g ai/ha
  Foxtail, Giant plant response rating: 40
Corn (Zea mays); 125 g ai/ha
  Corn plant response rating: 0
Corn (Zea mays); 500 g ai/ha
  Corn plant response rating: 40
[4]; 125 g ai/ha
  Blackgrass plant response rating: 70
[4]; 500 g ai/ha
  Blackgrass plant response rating: 80
Kochia (Kochia scoparia) [5]; 125 g ai/ha
  Kochia plant response rating: 10
Kochia (Kochia scoparia) [5]; 500 g ai/ha
  Kochia plant response rating: 20
[6]; 125 g ai/ha
  Galium plant response rating: 30
[6]; 500 g ai/ha
  Galium plant response rating: 50
[7]; 125 g ai/ha
  Ragweed plant response rating: 0
[7]; 500 g ai/ha
  Ragweed plant response rating: 20
[8]; 125 g ai/ha
  Barnyardgrass plant response rating: 20
[8]; 500 g ai/ha
  Barnyardgrass plant response rating: 60
[9]; 125 g ai/ha
  Wheat plant response rating: 20
[9]; 500 g ai/ha
  Wheat plant response rating: 40
[10]; 125 g ai/ha
  Pigweed plant response rating: 0
[10]; 500 g ai/ha
  Pigweed plant response rating: 30
[11]; 125 g ai/ha
  Ryegrass, Italian plant response rating: 50
[11]; 500 g ai/ha
  Ryegrass, Italian plant response rating: 80
[12]; 125 g ai/ha
  Foxtail, Giant plant response rating (0 to 100 scale): 60
[12]; 500 g ai/ha
  Foxtail, Giant plant response rating (0 to 100 scale): 90
Kochia (Kochia scoparia) [13]; 125 g ai/ha
  Kochia plant response rating (0 to 100 scale): 0
Kochia (Kochia scoparia) [13]; 500 g ai/ha
  Kochia plant response rating (0 to 100 scale): 0
[14]; 125 g ai/ha
  Ragweed plant response rating (0 to 100 scale): 0
[14]; 500 g ai/ha
  Ragweed plant response rating (0 to 100 scale): 0
[15]; 125 g ai/ha
  Pigweed plant response rating (0 to 100 scale): 0
[15]; 500 g ai/ha
  Pigweed plant response rating (0 to 100 scale): 0
[16]; 125 g ai/ha
  Ryegrass, Italian plant response rating (0 to 100 scale): 60
[16]; 500 g ai/ha
  Ryegrass, Italian plant response rating (0 to 100 scale): 70
[17]
  Barnyardgrass plant response rating (0 to 100 scale): 25
Rice (Oryza sativa)
  Rice plant response rating (0 to 100 scale): 0

## COc1cc(C2CC(C)=[N+]([O-])C2C(=O)Nc2cccc(F)c2F)cc(C)n1 (racemic) [Compound 57]
[1]; 125 g ai/ha
  Barnyardgrass plant response rating (0 to 100 scale): 90
[1]; 500 g ai/ha
  Barnyardgrass plant response rating (0 to 100 scale): 100
[2]
  Ducksalad plant response rating (0 to 100 scale): 0
[3]; 125 g ai/ha
  Foxtail, Giant plant response rating: 40
[3]; 500 g ai/ha
  Foxtail, Giant plant response rating: 90
Corn (Zea mays); 125 g ai/ha
  Corn plant response rating: 60
Corn (Zea mays); 500 g ai/ha
  Corn plant response rating: 90
[4]; 125 g ai/ha
  Blackgrass plant response rating: 80
[4]; 500 g ai/ha
  Blackgrass plant response rating: 90
Kochia (Kochia scoparia) [5]; 125 g ai/ha
  Kochia plant response rating: 0
Kochia (Kochia scoparia) [5]; 500 g ai/ha
  Kochia plant response rating: 30
[6]; 125 g ai/ha
  Galium plant response rating: 30
[6]; 500 g ai/ha
  Galium plant response rating: 40
[7]; 125 g ai/ha
  Ragweed plant response rating: 0
[7]; 500 g ai/ha
  Ragweed plant response rating: 0
[8]; 125 g ai/ha
  Barnyardgrass plant response rating: 80
[8]; 500 g ai/ha
  Barnyardgrass plant response rating: 80
[9]; 125 g ai/ha
  Wheat plant response rating: 20
[9]; 500 g ai/ha
  Wheat plant response rating: 90
[10]; 125 g ai/ha
  Pigweed plant response rating: 0
[10]; 500 g ai/ha
  Pigweed plant response rating: 0
[11]; 125 g ai/ha
  Ryegrass, Italian plant response rating: 40
[11]; 500 g ai/ha
  Ryegrass, Italian plant response rating: 90
[12]; 125 g ai/ha
  Foxtail, Giant plant response rating (0 to 100 scale): 90
[12]; 500 g ai/ha
  Foxtail, Giant plant response rating (0 to 100 scale): 100
Kochia (Kochia scoparia) [13]; 125 g ai/ha
  Kochia plant response rating (0 to 100 scale): 60
Kochia (Kochia scoparia) [13]; 500 g ai/ha
  Kochia plant response rating (0 to 100 scale): 60
[14]; 125 g ai/ha
  Ragweed plant response rating (0 to 100 scale): 0
[14]; 500 g ai/ha
  Ragweed plant response rating (0 to 100 scale): 30
[15]; 125 g ai/ha
  Pigweed plant response rating (0 to 100 scale): 0
[15]; 500 g ai/ha
  Pigweed plant response rating (0 to 100 scale): 20
[16]; 125 g ai/ha
  Ryegrass, Italian plant response rating (0 to 100 scale): 20
[16]; 500 g ai/ha
  Ryegrass, Italian plant response rating (0 to 100 scale): 90
[17]
  Barnyardgrass plant response rating (0 to 100 scale): 55
Rice (Oryza sativa)
  Rice plant response rating (0 to 100 scale): 0
